Source: patent publication US10385024B2, “Compounds and methods for inhibiting NHE-mediated antiport in the treatment of disorders associated with fluid retention or salt overload and gastrointestinal tract disorders” (Ardelyx, Inc., priority 2012, dated 2019)

Key:
Rat NHE-3 [1] = biological target: T1, Rat NHE-3 (Rattus norvegicus, UniProt P26433); experiment: Cell-based assay of NHE-3 activity (rat NHE-3 prompt inhibition); conditions: OK cells with rat NHE-3 gene, compound present during pH recovery
T1 construct: expressed in transfected cells; host or cells: Opossum kidney (OK) cells (ATCC), transfected by electroporation
Procedure: (§1) Rat or human NHE-3-mediated Na^+-dependent H^+ antiport was measured using a modification of the pH sensitive dye method originally reported by Paradiso (Proc. Natl. Acad. Sci. USA. (1984) 81(23): 7436-7440). Opossum kidney (OK) cells were obtained from the ATCC and propagated per their instructions. The rat NHE-3 gene (GenBank M85300) or the human NHE-3 gene (GenBank NM_004174.1) was introduced into OK cells via electroporation, and cells were seeded into 96 well plates and grown overnight. Medium was aspirated from the wells, cells were washed twice with NaCl-HEPES buffer (100 mM NaCl, 50 mM HEPES, 10 mM glucose, 5 mM KCl, 2 mM CaCl2, 1 mM MgCl2, pH 7.4), then incubated for 30 min at room temperature with NH4Cl-HEPES buffer (20 mM NH4Cl, 80 mM NaCl, 50 mM HEPES, 5 mM KCl, 2 mM CaCl2, 1 mM MgCl2, pH 7.4) containing 5 μM bis(acetoxymethyl) 3,3′-(3′,6′-bis(acetoxymethoxy)-5-((acetoxymethoxy)carbonyl)-3-oxo-3H-spiro[isobenzofuran-1,9′-xanthene]-2′,7′-diyl)dipropanoate (BCECF-AM). Cells were washed twice with Ammonium free, Na^+-free HEPES (100 mM choline, 50 mM HEPES, 10 mM glucose, 5 mM KCl, 2 mM CaCl2, 1 mM MgCl2, pH 7.4) and incubated in the same buffer for 10 minutes at room temperature to lower intracellular pH. […] Initial rates were plotted as the average 2 or more replicates, and pIC50 values were estimated using GraphPad Prism.

Rat NHE-3 [2] = biological target: T1, Rat NHE-3; experiment: Cell-based assay of NHE-3 activity (persistent inhibition, after washout); conditions: OK cells with rat NHE-3 gene, 60 min incubation, recovery initiated 40 min after compound washout
Procedure: The ability of compounds to inhibit Rat NHE-3-mediated Na^+-dependent H^+ antiport after application and washout was measured using a modification of the pH sensitive dye method described above in Example 74. Opossum kidney (OK) cells were obtained from the ATCC and propagated per their instructions. The rat NHE-3 gene was introduced into OK cells via electroporation, and cells were seeded into 96 well plates and grown overnight. Medium was aspirated from the wells, cells were washed twice with NaCl-HEPES buffer (100 mM NaCl, 50 mM HEPES, 10 mM glucose, 5 mM KCl, 2 mM CaCl2, 1 mM MgCl2, pH 7.4), then overlayed with NaCl-HEPES buffer containing 0-30 μM test compound. After a 60 min incubation, the test drug containing buffer was aspirated from the cells, cells were washed twice with NaCl-HEPES buffer without drug, then incubated for 30 min at room temperature with NH4Cl-HEPES buffer (20 mM NH4Cl, 80 mM NaCl, 50 mM HEPES, 5 mM KCl, 2 mM CaCl2, 1 mM MgCl2, pH 7.4) containing 5 μM BCECF-AM. Cells were washed twice with ammonium free, Na^+-free HEPES (100 mM choline, 50 mM HEPES, 10 mM glucose, 5 mM KCl, 2 mM CaCl2, 1 mM MgCl2, pH 7.4) and incubated in the same buffer for 10 minutes at room temperature to lower intracellular pH. […] Initial rates were plotted as the average 2 or more replicates, and pIC50 values were estimated using GraphPad Prism.

[3] = system: absorption of sodium from the intestinal lumen; experiment: Inhibition of intestinal sodium absorption (urinary sodium and fecal form); assay type: in vivo, Sprague-Dawley rats; conditions: rat, 3 mg/kg oral gavage, urine 16 h post-dose; asterisks = significance vs vehicle (*P<0.05, **P<0.01, ***P<0.001); read-out: uNa (% of vehicle)
Procedure: Urinary sodium concentration and fecal form were measured to assess the ability of selected example compounds to inhibit the absorption of sodium from the intestinal lumen. Eight-week old Sprague-Dawley rats were purchased from Charles River Laboratories (Hollister, Calif.), were housed 2 per cage, and acclimated for at least 3 days before study initiation. Animals were fed Harlan Teklad Global 2018 rodent chow (Indianapolis, Ind.) and water ad libitum throughout the study and maintained in a standard light/dark cycle of 6 AM to 6 PM. On the day of the study, between 4 PM and 5 PM, a group of rats (n=6) were dosed via oral gavage with test compound at the dosage indicated or vehicle (water) at a volume of 10 mL/kg. After dose administration animals were placed in individual metabolic cages where they were also fed the same chow in meal form and watered ad libitum. At 16 h post-dose, the urine samples were collected and fecal form was assessed by two independent observations. Fecal forms were scored according to a common scale associated with increasing fecal water to the wettest observation in the cage's collection funnel (1, normal pellet; 2, pellet adhering to sides of collection funnel due to moisture; 3, loss of normal pellet shape; 4, complete loss of shape with a blotting pattern; 5, liquid fecal streams evident). A rat's fecal form score (FFS) was determined by averaging both observational scores for all rats within a group (n=6). In every study the vehicle group average was 1. For urine samples, the volumes were determined gravimetrically and centrifuged at 3,600×g. The supernatants were diluted 100-fold in deionized Milli-Q water then filtered through a 0.2 μm GHP Pall AcroPrep filter plate (Pall Life Sciences, Ann Arbor, Mich.) prior to analysis by ion chromatography. Ten microliters of each filtered extract was injected onto a Dionex ICS-3000 ion chromatograph system (Dionex, Sunnyvale, Calif.). Cations were separated by an isocratic method using 25 mM methanesulfonic acid as the eluent on an IonPac CS12A 2 mm i.d.×250 mm, 8 μm particle size cation exchange column (Dionex). Sodium was quantified using standards prepared from a cation standard mix containing Li^+, Na^+, NH4^+, K^+, Mg^2+, and Ca^2+ (Dionex). The mean mass of sodium urinated for every group in the 16 h period was determined with the vehicle group usually urinating approximately 21 mg sodium. The urine Na (uNa) for rats in the test groups were expressed as a percentage of the vehicle mean and the means were compared to that of the vehicle group by utilizing a one-way analysis of variance coupled with a Dunnett's post hoc test.

human NHE-3 = biological target: T2, human NHE-3 (Homo sapiens, UniProt P48764); experiment: Cell-based assay of NHE-3 activity (human NHE3 inhibition assay); conditions: OK cells with human NHE-3 gene, BCECF pH dye, 0-30 μM test compound
T2 construct: expressed in transfected cells; host or cells: Opossum kidney (OK) cells (ATCC), transfected by electroporation
T2 sequence (P48764 26-834): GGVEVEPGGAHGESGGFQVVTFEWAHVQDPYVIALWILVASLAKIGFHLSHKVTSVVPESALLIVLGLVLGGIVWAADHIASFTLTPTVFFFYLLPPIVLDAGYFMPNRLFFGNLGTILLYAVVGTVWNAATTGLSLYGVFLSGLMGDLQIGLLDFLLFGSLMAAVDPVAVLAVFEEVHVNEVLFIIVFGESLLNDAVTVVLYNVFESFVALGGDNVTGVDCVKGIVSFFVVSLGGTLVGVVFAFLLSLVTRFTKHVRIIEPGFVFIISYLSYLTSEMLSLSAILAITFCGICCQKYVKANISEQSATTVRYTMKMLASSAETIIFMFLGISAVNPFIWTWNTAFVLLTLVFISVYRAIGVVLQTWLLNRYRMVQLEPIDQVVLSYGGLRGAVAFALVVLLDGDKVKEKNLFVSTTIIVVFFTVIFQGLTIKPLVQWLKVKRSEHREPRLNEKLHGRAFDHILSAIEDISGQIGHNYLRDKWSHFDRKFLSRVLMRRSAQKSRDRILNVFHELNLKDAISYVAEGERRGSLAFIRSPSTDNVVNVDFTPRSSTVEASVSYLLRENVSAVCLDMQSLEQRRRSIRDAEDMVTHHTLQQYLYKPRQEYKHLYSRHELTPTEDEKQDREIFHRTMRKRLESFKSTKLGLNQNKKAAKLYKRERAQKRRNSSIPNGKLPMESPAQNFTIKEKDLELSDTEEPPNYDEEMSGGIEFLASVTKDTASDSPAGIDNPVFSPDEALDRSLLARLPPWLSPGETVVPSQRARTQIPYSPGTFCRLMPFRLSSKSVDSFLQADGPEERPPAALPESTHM
Procedure: as §1

T1 sequence (P26433 29-831): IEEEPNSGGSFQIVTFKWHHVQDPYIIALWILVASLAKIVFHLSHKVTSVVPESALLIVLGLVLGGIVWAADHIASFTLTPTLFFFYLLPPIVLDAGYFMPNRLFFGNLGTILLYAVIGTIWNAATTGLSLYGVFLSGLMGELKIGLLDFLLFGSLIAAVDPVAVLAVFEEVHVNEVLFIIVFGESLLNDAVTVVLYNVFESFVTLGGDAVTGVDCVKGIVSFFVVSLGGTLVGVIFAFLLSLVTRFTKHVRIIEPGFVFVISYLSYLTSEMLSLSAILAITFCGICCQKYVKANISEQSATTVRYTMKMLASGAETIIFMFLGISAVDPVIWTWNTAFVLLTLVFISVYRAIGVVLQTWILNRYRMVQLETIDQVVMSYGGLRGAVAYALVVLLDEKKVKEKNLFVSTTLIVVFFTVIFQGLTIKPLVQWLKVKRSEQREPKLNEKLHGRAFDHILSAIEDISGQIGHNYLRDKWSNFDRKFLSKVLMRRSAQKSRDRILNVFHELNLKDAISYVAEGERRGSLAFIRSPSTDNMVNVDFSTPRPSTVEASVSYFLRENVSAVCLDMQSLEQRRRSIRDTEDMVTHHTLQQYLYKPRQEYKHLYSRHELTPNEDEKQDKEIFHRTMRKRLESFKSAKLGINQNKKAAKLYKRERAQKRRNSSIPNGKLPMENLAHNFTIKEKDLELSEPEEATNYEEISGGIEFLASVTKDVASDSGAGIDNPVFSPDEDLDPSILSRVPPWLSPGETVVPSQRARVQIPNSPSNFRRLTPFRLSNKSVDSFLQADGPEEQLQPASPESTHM

| IC50 (Rat NHE-3 [1]; read-out: Rat NHE3 pIC50 (prompt) (converted)) | IC50 (Rat NHE-3 [2]; read-out: Rat NHE3 pIC50 (persistent) (converted)) | IC50 (human NHE-3; read-out: Human NHE3 pIC50 (converted)) | Rat NHE3 pIC50 (prompt) (Rat NHE-3 [1]) | Rat NHE3 pIC50 (persistent) (Rat NHE-3 [2]) | Human NHE3 pIC50 (human NHE-3) | SMILES | response vs control in vivo at 3 mg/kg [3] |
| --- | --- | --- | --- | --- | --- | --- | --- |
|  |  |  | B (B NHE3 pIC50 5-7) | C (C NHE3 pIC50 > 7) | C (C NHE3 pIC50 > 7) | CN1Cc2c(Cl)cc(Cl)cc2[C@H](c2cccc(S(=O)(=O)NCCOCCOCCNC(=O)NCCN(CCNC(=O)NCCOCCOCCNS(=O)(=O)c3cccc([C@@H]4CN(C)Cc5c(Cl)cc(Cl)cc54)c3)C(=O)CCOCCOCCOCCOCCOCCC(=O)N(CCNC(=O)NCCOCCOCCNS(=O)(=O)c3cccc([C@@H]4CN(C)Cc5c(Cl)cc(Cl)cc54)c3)CCNC(=O)NCCOCCOCCNS(=O)(=O)c3cccc([C@@H]4CN(C)Cc5c(Cl)cc(Cl)cc54)c3)c2)C1 [Example 59] |  |
|  |  |  | B (B NHE3 pIC50 5-7) | B (B NHE3 pIC50 5-7) | C (C NHE3 pIC50 > 7) | CN1Cc2c(Cl)cc(Cl)cc2[C@H](c2cccc(S(=O)(=O)NCCOCCOCCNC(=O)NCCN(CCNC(=O)NCCOCCOCCNS(=O)(=O)c3cccc([C@@H]4CN(C)Cc5c(Cl)cc(Cl)cc54)c3)C(=O)CCOCCOCCOCCOCCOCCOCCOCCOCCOCCC(=O)N(CCNC(=O)NCCOCCOCCNS(=O)(=O)c3cccc([C@@H]4CN(C)Cc5c(Cl)cc(Cl)cc54)c3)CCNC(=O)NCCOCCOCCNS(=O)(=O)c3cccc([C@@H]4CN(C)Cc5c(Cl)cc(Cl)cc54)c3)c2)C1 [Example 61] |  |
|  |  |  | C (C NHE3 pIC50 > 7) | C (C NHE3 pIC50 > 7) | C (C NHE3 pIC50 > 7) | CN1Cc2c(Cl)cc(Cl)cc2[C@H](c2cccc(S(=O)(=O)NCCOCCOCCN(C)C(=O)CCC(CCC(=O)N(C)CCOCCOCCNS(=O)(=O)c3cccc([C@@H]4CN(C)Cc5c(Cl)cc(Cl)cc54)c3)(CCC(=O)N(C)CCOCCOCCNS(=O)(=O)c3cccc([C@@H]4CN(C)Cc5c(Cl)cc(Cl)cc54)c3)NC(=O)NCC(=O)O)c2)C1 [Example 69] |  |

More lines, now with the values behind:

| SMILES | IC50 (Rat NHE-3 [1]; read-out: Rat NHE3 pIC50 (prompt) (converted)) | IC50 (Rat NHE-3 [2]; read-out: Rat NHE3 pIC50 (persistent) (converted)) | IC50 (human NHE-3; read-out: Human NHE3 pIC50 (converted)) | Rat NHE3 pIC50 (prompt) (Rat NHE-3 [1]) | Rat NHE3 pIC50 (persistent) (Rat NHE-3 [2]) | Human NHE3 pIC50 (human NHE-3) | response vs control in vivo at 3 mg/kg [3] |
| --- | --- | --- | --- | --- | --- | --- | --- |
| CN1Cc2c(Cl)cc(Cl)cc2[C@H](c2cccc(S(=O)(=O)NCCOCCOCCNC(=O)CCC(CCC(=O)NCCOCCOCCNS(=O)(=O)c3cccc([C@@H]4CN(C)Cc5c(Cl)cc(Cl)cc54)c3)(CCC(=O)NCCOCCOCCNS(=O)(=O)c3cccc([C@@H]4CN(C)Cc5c(Cl)cc(Cl)cc54)c3)NS(C)(=O)=O)c2)C1 [Example 5, N^1,N^7-bis(2-(2-(2-(3-((S)-6,8-dichloro-2-methyl-1,2,3,4-tetrahydroisoquinolin-4-yl)phenylsulfonamido)ethoxy)ethoxy)ethyl)-4-(3-(2-(2-(2-(3-((S)-6,8-dichloro-2-methyl-1,2,3,4-tetrahydroisoquinolin-4-yl)phenylsulfonamido)ethoxy)ethoxy)ethylamino)-3-oxopropyl)-4-(methylsulfonamido)heptanediamide] | 100 to 10000 nM | < 100 nM | 100 to 10000 nM |  |  |  | 35 to 75% |
| CN1Cc2c(Cl)cc(Cl)cc2[C@H](c2cccc(S(=O)(=O)NCCOCCOCCOCCNC(=O)CN(CCN(CC(=O)NCCOCCOCCOCCNS(=O)(=O)c3cccc([C@@H]4CN(C)Cc5c(Cl)cc(Cl)cc54)c3)CC(=O)NCCOCCOCCOCCNS(=O)(=O)c3cccc([C@@H]4CN(C)Cc5c(Cl)cc(Cl)cc54)c3)CCN(CC(=O)NCCOCCOCCOCCNS(=O)(=O)c3cccc([C@@H]4CN(C)Cc5c(Cl)cc(Cl)cc54)c3)CC(=O)NCCOCCOCCOCCNS(=O)(=O)c3cccc([C@@H]4CN(C)Cc5c(Cl)cc(Cl)cc54)c3)c2)C1 [Example 49] |  |  |  | B (B NHE3 pIC50 5-7) | B (B NHE3 pIC50 5-7) | B (B NHE3 pIC50 5-7) |  |
| CN1Cc2c(Cl)cc(Cl)cc2[C@H](c2cccc(S(=O)(=O)NCCOCCOCCOCCNC(=O)NCCCN(CCCNC(=O)NCCOCCOCCOCCNS(=O)(=O)c3cccc([C@@H]4CN(C)Cc5c(Cl)cc(Cl)cc54)c3)CCCNC(=O)NCCOCCOCCOCCNS(=O)(=O)c3cccc([C@@H]4CN(C)Cc5c(Cl)cc(Cl)cc54)c3)c2)C1 [Example 51] |  |  |  | C (C NHE3 pIC50 > 7) | C (C NHE3 pIC50 > 7) | C (C NHE3 pIC50 > 7) |  |
